Earlier results, collected in patent US7098242B2, “Dihydroartemisinin and dihydroartemisitene dimers as anti-cancer and anti-infective agents” (The University of Mississippi, priority 2002, dated 2006).

How the values were obtained:
[1] = tested on: chloroquine-sensitive and chloroquine-resistant strains of Plasmodium falciparum

For C[C@H]1[C@H](OC(=O)CCC(=O)[O-])O[C@@H]2O[C@@]3(C)CC[C@H]4[C@H](C)CC[C@@H]1[C@@]24OO3.[Na+] [sodium artesunate], which “activity relative to other artemisinin derivatives” value (malaria) is on record?
The value was “more activity”.

For C[C@@H]1CC[C@H]2[C@@H](C)C(=O)O[C@@H]3O[C@@]4(C)CC[C@@H]1[C@]32OO4 [artemisinin], which anti-malarial activity [1] is on record?
The anti-malarial activity was “anti-malarial activity against both chloroquine-sensitive and chloroquine-resistant strains”.
